≈ marks a conversion by molar mass, not a printed value. Where a name gives a salt, the structure may show the parent alone. Read-outs that look alike come from different tables or passages of the source.
How the values were obtained:
Experiment in all cases: Minimum inhibitory concentration (MIC)
Type in all cases: cell-based
[1] = tested on: Proteus mirabilis IFO 3849; conditions: IFO3849; Proteus mirabilis IFO 3849, Gram -
Method: (§1) The compounds of the present invention (A, C, E, F, G, H and I) and ofloxacin as control were dissolved in 0.1N aqueous potassium hydroxide to prepare a solution of 5000 μg/ml in concentration. The compounds of the present invention (B, D and J) were dissolved in sterilized distilled water to prepare a solution of 5000 μg/ml in concentration. Each solution was diluted with sterilized distilled water to prepare a standard solution with a concentration of each test compound: 1000 μg/ml. The test was carried out by a method approved by Japan Society of Chemotherapy [cf. Chemotherapy, 29, 76-79 (1981)(TOKYO)].

[2] = tested on: Micrococcus luteus ATCC 9341; conditions: ATCC9341; Micrococcus luteus ATCC 9341, Gram +
Method: as §1

[3] = tested on: Morganella morganii IFO 3848; conditions: IFO3848; Morganella morganii IFO 3848, Gram -
Method: as §1

[4] = tested on: Escherichia coli NIHJ JC-2; conditions: NIHJJC2; Escherichia coli NIHJ JC-2, Gram -
Method: as §1

Enterobacter cloacae 963 = conditions: Enterobacter cloacae 963, Gram -
Method: as §1

[5] = tested on: Serratia marcescens IAM 1184; conditions: Serratia marcescens, IAM1184, Serratia marcescens IAM 1184, Gram -
Method: as §1

[6] = tested on: Citrobacter freundii NIHJ 10018-68; conditions: NIHJ10018; Citrobacter freundii NIHJ 10018-68, Gram -
Method: as §1

Shigella sonnei EW-33 = conditions: EW33; Shigella sonnei EW-33, Gram -
Method: as §1

[7] = tested on: Bacillus subtilis ATCC 6633
Method: as §1

Escherichia coli KC-14 = conditions: KC14; Escherichia coli KC-14, Gram -
Method: as §1

[8] = tested on: Staphylococcus aureus IID 803
Method: as §1

[9] = tested on: Staphylococcus aureus FDA 209P JC-1; conditions: FDA209P; Staphylococcus aureus FDA 209P JC-1, Gram +
Method: as §1

[10] = tested on: Enterobacter aerogenes ATCC 13048; conditions: for MIC: Klebsiella aerogenes, ATCC13048, Enterobacter aerogenes ATCC 13048, Gram -
Method: as §1

Proteus vulgaris OX-19 = tested on: Proteus vulgaris OX-19
Method: as §1

[11] = tested on: Streptococcus faecalis IID 682; conditions: Enterococcus faecalis, IID682, Streptococcus faecalis IID 682, Gram +
Method: as §1

[12] = tested on: Staphylococcus epidermidis IAM-1296; conditions: for MIC: Staphylococcus epidermidis, IAM1296, Staphylococcus epidermidis IAM-1296, Gram +
Method: as §1

[13] = tested on: Pseudomonas aeruginosa E-2; conditions: E2; Pseudomonas aeruginosa E-2, Gram -
Method: as §1

[14] = tested on: Salmonella typhimurium IID 971; conditions: Salmonella typhimurium IID 971, Gram -; for MIC: Salmonella enterica, read-out: Minimum inhibitory concentration (MIC)
Method: as §1

[15] = tested on: Pseudomonas aeruginosa IFO 3445; conditions: Pseudomonas aeruginosa, IFO3445, Pseudomonas aeruginosa IFO 3445, Gram -
Method: as §1

[16] = tested on: Pseudomonas aeruginosa NCTC 10490; conditions: for MIC: Pseudomonas aeruginosa, NCTC10490, Pseudomonas aeruginosa NCTC 10490, Gram -
Method: as §1

[17] = tested on: Acinetobacter calcoaceticus AC 54; conditions: for MIC: Acinetobacter calcoaceticus, AC54, Acinetobacter calcoaceticus AC 54, Gram -
Method: as §1

[18] = tested on: Klebsiella pneumoniae PCI 602; conditions: for MIC: Klebsiella pneumoniae
Method: as §1

[19] = ATCC6633, Bacillus subtilis ATCC 6633, Gram +, read-out: Minimum inhibitory concentration (MIC)
[20] = IID803, Staphylococcus aureus IID 803, Gram +, read-out: Minimum inhibitory concentration (MIC)
[21] = OX19, Proteus vulgaris OX-19, Gram -, read-out: Minimum inhibitory concentration (MIC)
[22] = PCI602, Klebsiella pneumoniae PCI 602, Gram -, read-out: Minimum inhibitory concentration (MIC)

Compound	MIC [1] [µg/mL]	MIC [2] [µg/mL]	MIC [3] [µg/mL]	MIC [4] [µg/mL]	MIC (Enterobacter cloacae 963) [µg/mL]	MIC [5] [µg/mL]	MIC [6] [µg/mL]	MIC (Shigella sonnei EW-33) [µg/mL]	MIC [7, 19] [µg/mL]	MIC (Escherichia coli KC-14) [µg/mL]	MIC [8, 20] [µg/mL]	MIC [9] [µg/mL]	MIC [10] [µg/mL]	MIC [11] [µg/mL]	MIC [12] [µg/mL]	MIC [13] [µg/mL]	MIC [14] [µg/mL]	MIC [15] [µg/mL]	MIC [16] [µg/mL]	MIC [17] [µg/mL]	further results
CN1CCN(c2c(F)cc3c(=O)c(C(=O)O)c4scc5n4c3c2OC5)CC1 [Compound (A), 9,1-Epoxymethano-7-fluoro-8-(4-methyl-1-piperazinyl)-5-oxo-5H-thiazolo[3,2-a]quinoline-4-carboxylic acid]	0.2 (≈ 0.514 µM)	1.56	0.1 (≈ 0.257 µM)	0.1 (≈ 0.257 µM)	0.1 (≈ 0.257 µM)	0.2 (≈ 0.514 µM)	0.2 (≈ 0.514 µM)	0.05 (≈ 0.128 µM)	0.1 (≈ 0.257 µM)	0.1 (≈ 0.257 µM)	0.2 (≈ 0.514 µM)	0.2	0.1 (≈ 0.257 µM)	0.39	0.39	0.78 (≈ 2 µM)	0.05 (≈ 0.128 µM)	0.78 (≈ 2 µM)	0.78 (≈ 2 µM)	0.2 (≈ 0.514 µM)	MIC (Proteus vulgaris OX-19; [21]): 0.05 µg/mL (≈ 0.128 µM)
O=C(O)c1c(=O)c2cc(F)c(N3CCNCC3)c3c2n2c(csc12)CO3 [Compound (C), 9,1-Epoxymethano-7-fluoro-8-(1-piperazinyl)-5-oxo-5H-thiazolo[3,2-a]quinoline-4-carboxylic acid]	0.2 (≈ 0.533 µM)	3.13	0.1 (≈ 0.266 µM)	0.1 (≈ 0.266 µM)	0.2 (≈ 0.533 µM)	0.39 (≈ 1.04 µM)	0.2 (≈ 0.533 µM)	0.05 (≈ 0.133 µM)	0.2 (≈ 0.533 µM)	0.1 (≈ 0.266 µM)	0.39 (≈ 1.04 µM)	0.39	0.1 (≈ 0.266 µM)	0.78	0.78	0.78 (≈ 2.08 µM)	0.05 (≈ 0.133 µM)	0.78 (≈ 2.08 µM)	0.39 (≈ 1.04 µM)	0.78 (≈ 2.08 µM)	MIC (Proteus vulgaris OX-19; [21]): 0.1 µg/mL (≈ 0.266 µM); MIC [18, 22]: 0.05 µg/mL (≈ 0.133 µM)
O=C(O)c1c(=O)c2cc(F)c(N3CCNCC3)c3c2n2c(csc12)CO3 [Compound (D), 9,1-Epoxymethano-7-fluoro-8-(1-piperazinyl)-5-oxo-5H-thiazolo[3,2-a]quinoline-4-carboxylic acid.hydrochloride.1/2hydrate]																					Minimum inhibitory concentration (MIC) ([10]; Enterobacter aerogenes ATCC 13048, Gram -): 0.20 µg/mL; Minimum inhibitory concentration (MIC) ([12]; Staphylococcus epidermidis IAM-1296, Gram +): 1.56 µg/mL; Minimum inhibitory concentration (MIC) [14]: 0.10 µg/mL; Minimum inhibitory concentration (MIC) ([16]; Pseudomonas aeruginosa NCTC 10490, Gram -): 0.78 µg/mL; Minimum inhibitory concentration (MIC) ([17]; Acinetobacter calcoaceticus AC 54, Gram -): 1.56 µg/mL; Minimum inhibitory concentration (MIC) ([18]; Klebsiella pneumoniae PCI 602, Gram -): 0.025 µg/mL
CC1CN(c2c(F)cc3c(=O)c(C(=O)O)c4scc5n4c3c2OC5)CCN1 (stereo not drawn) [Compound (E), 9,1-Epoxymethano-7-fluoro-8-(3-methyl-1-piperazinyl)-5-oxo-5H-thiazolo[3,2-a]quinoline-4-carboxylic acid.1/4hydrate]	0.2	3.13	0.1	0.2	0.2	0.39	0.78	0.1	0.1	0.1	0.2	0.2	0.1	0.78	0.78	0.78	0.1	1.56	0.78	0.78	MIC (Proteus vulgaris OX-19; Proteus vulgaris, OX19, read-out: Minimum inhibitory concentration (MIC)): 0.05 µg/mL; MIC [18, 22]: 0.025 µg/mL
O=C(O)c1c(=O)c2cc(F)c(N3CCN(O)CC3)c3c2n2c(csc12)CO3 [Compound (F), 9,1-Epoxymethano-7-fluoro-8-(4-hydroxy-1-piperazinyl)-5-oxo-5H-thiazolo[3,2-a]quinoline-4-carboxylic acid.1/4hydrate]	0.2	6.25	0.1	0.2	0.2	0.78	0.2	0.05		0.1	0.39	0.39	0.1	1.56	1.56	1.56	0.05	1.56	0.78	1.56	MIC ([7]; Bacillus subtilis, ATCC6633, read-out: Minimum inhibitory concentration (MIC)): 0.1 µg/mL; MIC (Proteus vulgaris OX-19; [21]): 0.05 µg/mL; MIC [18, 22]: 0.025 µg/mL
O=C(O)c1c(=O)c2cc(F)c(N3CCCC3)c3c2n2c(csc12)CO3 [Compound (G), 9,1-Epoxymethano-7-fluoro-8-(1-pyrrolidinyl)-5-oxo-5H-thiazolo[3,2-a]quinoline-4-carboxylic acid]	0.39 (≈ 1.08 µM)	3.13	0.2 (≈ 0.555 µM)	0.2 (≈ 0.555 µM)	0.39 (≈ 1.08 µM)	1.56 (≈ 4.33 µM)	3.13 (≈ 8.69 µM)	0.1 (≈ 0.277 µM)	0.025 (≈ 0.0694 µM)	0.2 (≈ 0.555 µM)		0.025	0.1 (≈ 0.277 µM)	0.2	0.05	1.56 (≈ 4.33 µM)	0.1 (≈ 0.277 µM)	1.56 (≈ 4.33 µM)	0.78 (≈ 2.16 µM)	0.2 (≈ 0.555 µM)	MIC ([8]; Staphylococcus aureus, IID803, read-out: Minimum inhibitory concentration (MIC)): 0.05 µg/mL (≈ 0.139 µM); MIC (Proteus vulgaris OX-19; [21]): 0.1 µg/mL (≈ 0.277 µM); MIC [18, 22]: 0.1 µg/mL (≈ 0.277 µM)
O=C(O)c1c(=O)c2cc(F)c(N3CCC(O)C3)c3c2n2c(csc12)CO3 (stereo not drawn) [Compound (H), 9,1-Epoxymethano-7-fluoro-8-(3-hydroxy-1-pyrrolidinyl)-5-oxo-5H-thiazolo[3,2-a]quinoline-4-carboxylic acid]	0.1 (≈ 0.266 µM)	0.78	0.1 (≈ 0.266 µM)	0.05 (≈ 0.133 µM)	0.1 (≈ 0.266 µM)	0.39 (≈ 1.04 µM)	0.39 (≈ 1.04 µM)	0.05 (≈ 0.133 µM)	0.006 (≈ 0.0159 µM)	0.05 (≈ 0.133 µM)	0.025 (≈ 0.0664 µM)	0.025	0.1 (≈ 0.266 µM)	0.2	0.2	0.39 (≈ 1.04 µM)	0.0125 (≈ 0.0332 µM)	0.39 (≈ 1.04 µM)	0.39 (≈ 1.04 µM)	0.1 (≈ 0.266 µM)	MIC (Proteus vulgaris OX-19; [21]): 0.0125 µg/mL (≈ 0.0332 µM); MIC [18, 22]: 0.006 µg/mL (≈ 0.0159 µM)
NC1CCN(c2c(F)cc3c(=O)c(C(=O)O)c4scc5n4c3c2OC5)C1 (stereo not drawn) [Compound (I), 9,1-Epoxymethano-7-fluoro-8-(3-amino-1-pyrrolidinyl)-5-oxo-5H-thiazolo[3,2-a]quinoline-4-carboxylic acid]	0.39 (≈ 1.04 µM)	1.56	0.2 (≈ 0.533 µM)	0.2 (≈ 0.533 µM)	0.2 (≈ 0.533 µM)	0.78 (≈ 2.08 µM)	0.2 (≈ 0.533 µM)	0.1 (≈ 0.266 µM)	0.2 (≈ 0.533 µM)	0.1 (≈ 0.266 µM)	0.39 (≈ 1.04 µM)	0.2	0.1 (≈ 0.266 µM)	0.78	0.78	0.78 (≈ 2.08 µM)	0.1 (≈ 0.266 µM)	0.78 (≈ 2.08 µM)	0.39 (≈ 1.04 µM)	0.78 (≈ 2.08 µM)	MIC (Proteus vulgaris OX-19; [21]): 0.2 µg/mL (≈ 0.533 µM); MIC ([18]; PCI602, read-out: Minimum inhibitory concentration (MIC)): 0.05 µg/mL (≈ 0.133 µM)

Source: patent US4808584A, “Quinolinecarboxylic acid derivatives and antibacterial agent containing the same” (Kanebo, Ltd., priority 1987, dated 1989)
